Reference: ChEMBL document CHEMBL3045165, “3D-QSAR study of multi-target-directed AchE inhibitors based on autodocking” (Med Chem Res, 2012)

Molecular target: Acetylcholinesterase (Homo sapiens, UniProt P22303)
Assay: Inhibition of AChE (unknown origin) using acetylthiocholine chloride as substrate after 15 min by Ellman's method

Chain of Acetylcholinesterase (P22303 whole entry): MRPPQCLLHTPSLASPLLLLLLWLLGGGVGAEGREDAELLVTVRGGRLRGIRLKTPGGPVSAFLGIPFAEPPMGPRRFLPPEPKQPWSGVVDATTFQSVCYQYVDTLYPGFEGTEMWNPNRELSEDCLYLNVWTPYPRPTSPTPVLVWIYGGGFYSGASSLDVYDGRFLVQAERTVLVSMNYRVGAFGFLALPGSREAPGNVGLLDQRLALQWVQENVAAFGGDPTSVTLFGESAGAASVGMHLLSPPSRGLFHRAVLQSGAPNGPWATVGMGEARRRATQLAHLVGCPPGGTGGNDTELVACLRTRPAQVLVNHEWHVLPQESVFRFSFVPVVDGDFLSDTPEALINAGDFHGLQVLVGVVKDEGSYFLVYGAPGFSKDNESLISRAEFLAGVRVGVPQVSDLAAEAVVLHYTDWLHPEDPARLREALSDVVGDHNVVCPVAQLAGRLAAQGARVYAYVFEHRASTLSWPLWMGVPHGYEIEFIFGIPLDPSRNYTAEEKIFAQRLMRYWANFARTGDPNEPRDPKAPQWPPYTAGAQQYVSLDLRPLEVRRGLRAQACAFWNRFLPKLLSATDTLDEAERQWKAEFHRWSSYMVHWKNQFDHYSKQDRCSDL

| Compound | IC50 [µM] |
| --- | --- |
| CCOC(=O)C1=C(C)Oc2nc3c(c(N)c2[C@H]1c1cccc([N+](=O)[O-])c1)CCCC3 | 1.91 |
| CCOC(=O)C1=C(C)Oc2nc3c(c(N)c2[C@H]1c1ccccc1)CCC3 | 3.89 |
| CCOC(=O)C1=C(C)Oc2nc3c(c(N)c2[C@H]1c1cccnc1OC)CCCC3 | 3.89 |
| CCOC(=O)C1=C(C)Oc2nc3c(c(N)c2[C@H]1c1cccnc1Br)CCCC3 | 1.86 |
| CCOC(=O)C1=C(C)Oc2nc3c(c(N)c2[C@H]1c1cccnc1Cl)CCCC3 | 2.14 |
| CC1(C)CC(=O)C2=C(C1)Oc1nc3c(c(N)c1[C@H]2c1ccccc1)CCCC3 | 49 |
| CC1(C)CC(=O)C2=C(C1)Oc1nc3c(c(N)c1[C@H]2c1ccc(F)cc1)CCCC3 | 69.2 |
| CC1(C)CC(=O)C2=C(C1)Oc1nc3c(c(N)c1[C@H]2c1ccccc1C(F)(F)F)CCCC3 | 17.8 |
| CC1(C)CC(=O)C2=C(C1)Oc1nc3c(c(N)c1[C@H]2c1cccc([N+](=O)[O-])c1)CCCC3 | 12 |
| CC1(C)CC(=O)C2=C(C1)Oc1nc3c(c(N)c1[C@H]2c1ccc([N+](=O)[O-])cc1)CCCC3 | 93.3 |
| Cc1ccc([C@H]2C3=C(CC(C)(C)CC3=O)Oc3nc4c(c(N)c32)CCCC4)cc1 | 51.3 |
| COc1ccccc1[C@H]1C2=C(CC(C)(C)CC2=O)Oc2nc3c(c(N)c21)CCCC3 | 7.08 |
| COc1cccc([C@H]2C3=C(CC(C)(C)CC3=O)Oc3nc4c(c(N)c32)CCCC4)c1 | 21.4 |
| COc1ccc([C@H]2C3=C(CC(C)(C)CC3=O)Oc3nc4c(c(N)c32)CCCC4)cc1 | 40.7 |
| CCOC(=O)C1=C(C)Nc2nc3c(c(N)c2[C@H]1c1ccccc1)CCCC3 | 0.0794 |
| CCOC(=O)C1=C(C)Nc2nc3c(c(N)c2[C@H]1c1ccc([N+](=O)[O-])cc1)CCCC3 | 0.603 |
| CCOC(=O)C1=C(C)Nc2nc3c(c(N)c2[C@H]1c1ccc(C)cc1)CCCC3 | 0.0912 |
| CC1(C)CC(=O)C2=C(C1)Nc1nc3c(c(N)c1[C@H]2c1ccccc1)CCCC3 | 0.324 |
| CC1(C)CC(=O)C2=C(C1)Nc1nc3c(c(N)c1[C@H]2c1ccc(F)cc1)CCCC3 | 0.537 |
| Cc1ccc([C@H]2C3=C(CC(C)(C)CC3=O)Nc3nc4c(c(N)c32)CCCC4)cc1 | 0.229 |
| COc1ccc([C@H]2C3=C(CC(C)(C)CC3=O)Nc3nc4c(c(N)c32)CCCC4)cc1 | 0.219 |
| CC1(C)CC(=O)C2=C(C1)Nc1nc3c(c(N)c1[C@H]2c1ccncc1)CCCC3 | 0.603 |

| Compound | IC50 [µM] |
| --- | --- |
| CCOC(=O)c1c(C)nc2nc3c(c(N)c2c1-c1ccc(C)cc1)CCCCC3 | 12.9 |
| CCOC(=O)c1c(C)nc2nc3c(c(N)c2c1-c1ccccc1OC)CCCCC3 | 21.9 |
| CCOC(=O)c1c(C)nc2nc3c(c(N)c2c1-c1ccc(Cl)cc1)CCCCC3 | 19.1 |
| CCOC(=O)c1c(C)nc2nc3c(c(N)c2c1-c1cccc([N+](=O)[O-])c1)CCCCC3 | 14.1 |
| CCOC(=O)c1c(C)nc2nc3c(c(N)c2c1-c1ccccc1)CCCCCC3 | 17 |
| CCOC(=O)c1c(C)nc2nc3c(c(N)c2c1-c1ccc(OC)cc1)CCCCCC3 | 17 |
| CCOC(=O)C1=C(C)Oc2nc3c(c(N)c2[C@H]1c1ccncc1)CCC3 | 6.61 |
| CCOC(=O)C1=C(C)Oc2nc3c(c(N)c2[C@H]1c1cccs1)CCC3 | 27.5 |
| CCOC(=O)C1=C(C)Oc2nc3c(c(N)c2[C@H]1c1ccc(OC)cc1)CCCC3 | 0.871 |
| CCOC(=O)C1=C(C)Oc2nc3c(c(N)c2[C@H]1c1ccncc1)CCCC3 | 3.02 |
| CCOC(=O)C1=C(C)Oc2nc3c(c(N)c2[C@H]1c1cccnc1)CCCC3 | 7.08 |
| CCOC(=O)C1=C(C)Oc2nc3c(c(N)c2[C@H]1c1cccs1)CCCC3 | 24.5 |
| CCOC(=O)C1=C(C)Oc2nc3c(c(N)c2[C@H]1c1ccco1)CCCC3 | 1.7 |
| CCOC(=O)C1=C(C)Oc2nc3c(c(N)c2[C@H]1c1ccncc1)CCCCC3 | 8.51 |
| CCOC(=O)C1=C(C)Oc2nc3c(c(N)c2[C@H]1c1cccnc1)CCCCC3 | 32.4 |
| CCOC(=O)C1=C(C)Oc2nc3c(c(N)c2[C@H]1c1cccs1)CCCCC3 | 14.5 |
| CCOC(=O)C1=C(C)Oc2nc3c(c(N)c2[C@H]1c1cccc(OC)c1)CCC3 | 24 |
| CCOC(=O)C1=C(C)Oc2nc3c(c(N)c2[C@H]1c1ccc(OC)c(OC)c1)CCC3 | 26.9 |
| CCOC(=O)C1=C(C)Oc2nc3c(c(N)c2[C@H]1c1cccc(OC)c1)CCCC3 | 7.76 |
| CCOC(=O)C1=C(C)Oc2nc3c(c(N)c2[C@H]1c1ccc(OC)c(OC)c1)CCCC3 | 4.57 |
| CCOC(=O)C1=C(C)Oc2nc3c(c(N)c2[C@H]1c1cccc(OC)c1)CCCCC3 | 12.9 |
| CCOC(=O)C1=C(C)Oc2nc3c(c(N)c2[C@H]1c1ccccc1OC)CCCCC3 | 20.9 |

| Compound | IC50 [µM] |
| --- | --- |
| CCOC(=O)C1=C(C)Oc2nc3c(c(N)c2[C@H]1c1ccc(OC)c(OC)c1)CCCCC3 | 33.1 |
| CCOC(=O)C1=C(C)Oc2nc3c(c(N)c2[C@H]1c1ccccc1)CCCC3 | 1.55 |
| CCOC(=O)C1=C(C)Oc2nc3c(c(N)c2[C@H]1c1ccc(C)cc1)CCCC3 | 1.82 |
| CCOC(=O)C1=C(C)Oc2nc3c(c(N)c2[C@H]1c1ccc(Cl)cc1)CCCC3 | 1.95 |
| CCOC(=O)C1=C(C)Oc2nc3c(c(N)c2[C@H]1c1ccc(C#N)cc1)CCCC3 | 3.47 |
| CCOC(=O)c1c(C)nc2nc3c(c(N)c2c1-c1ccc(OC)cc1)CCCCC3 | 1.35 |
| CCOC(=O)c1c(C)nc2nc3c(c(N)c2c1-c1ccc(OC)c(OC)c1)CCCC3 | 1.29 |
| CCOC(=O)c1c(C)nc2nc3c(c(N)c2c1-c1ccc(F)cc1)CCCC3 | 0.708 |
| CCOC(=O)c1c(C)nc2nc3c(c(N)c2c1-c1ccc(F)cc1)CCCCC3 | 5.37 |
| CCOC(=O)c1c(C)nc2nc3c(c(N)c2c1-c1ccc(Cl)cc1)CCCC3 | 1.29 |
| CCOC(=O)c1c(C)nc2nc3c(c(N)c2c1-c1ccc(OC)c(OC)c1)CCCCC3 | 6.46 |
| Cc1nc2nc3c(c(N)c2c(-c2ccccc2)c1C(=O)OC(C)C)CCCC3 | 1.2 |
| CCOC(=O)c1c(C)nc2nc3c(c(N)c2c1-c1ccccc1)CCCC3 | 0.813 |
| CCOC(=O)c1c(C)nc2nc3c(c(N)c2c1-c1ccccc1)CCCCC3 | 20.9 |
| CCOC(=O)c1c(C)nc2nc3c(c(N)c2c1-c1ccc(OC)cc1)CCCC3 | 8.91 |
| CCOC(=O)c1c(C)nc2nc3c(c(N)c2c1-c1ccncc1)CCC3 | 8.13 |
| CCOC(=O)c1c(C)nc2nc3c(c(N)c2c1-c1ccncc1)CCCC3 | 1.41 |
| CCOC(=O)c1c(C)nc2nc3c(c(N)c2c1-c1ccccc1)CCC3 | 12 |
| CCOC(=O)c1c(C)nc2nc3c(c(N)c2c1-c1ccc(OC)cc1)CCC3 | 13.8 |
| CCOC(=O)c1c(C)nc2nc3c(c(N)c2c1-c1cccc(OC)c1)CCCC3 | 1.2 |
| CCOC(=O)c1c(C)nc2nc3c(c(N)c2c1-c1cccc([N+](=O)[O-])c1)CCCC3 | 0.933 |
| CCOC(=O)c1c(C)nc2nc3c(c(N)c2c1-c1ccncc1)CCCCC3 | 5.13 |
